Source: patent US8829193B2, “PIM kinase inhibitors and methods of their use” (Novartis AG, priority 2008, dated 2014)

Tests used:
Type in all cases: biochemical
Pim2 kinase = Pim2 kinase (Homo sapiens (Human), UniProt Q9P1W9); experiment: Pim2 ATP depletion assay; conditions: 4 μM ATP, 10 μM BAD peptide, 5 nM PIM2
Procedure: (§1) The activity of PIM2 is measured using a luciferase-luciferin based ATP detection reagent to quantify ATP depletion resulting from kinase-catalyzed phosphoryl transfer to a peptide substrate. Compounds to be tested are dissolved in 100% DMSO and directly distributed into white 384-well plates at 0.5 piper well. […] After 15 minutes, 10 μl of 8 μM ATP in assay buffer is added. Final assay concentrations are 5 nM PIM2, 4 μM ATP, 10 μM BAD peptide and 2.5% DMSO. The reaction is performed until approximately 50% of the ATP is depleted, then stopped with the addition of 20 μl KinaseGlo Plus (Promega Corporation) solution. The stopped reaction is incubated for 10 minutes and the remaining ATP detected via luminescence on the Victor2 (Perkin Elmer).

Pim3 kinase = Pim3 kinase (Homo sapiens (Human), UniProt Q86V86); experiment: Pim3 ATP depletion assay; conditions: 40 μM ATP, 100 μM BAD peptide
Procedure: as §1, with “of PIM3” for “of PIM2”, “of 80” for “of 8”, “nM PIM1, 40” for “nM PIM2, 4”, “ATP, 100” for “ATP, 10”, “stopped by” for “stopped with”

Pim1 kinase = Pim1 kinase (Homo sapiens (Human), UniProt P11309); experiment: Pim1 ATP depletion assay; conditions: 20 μM ATP, 40 μM BAD peptide, 2.5 nM PIM1
Chain of Pim1 kinase (P11309 whole entry): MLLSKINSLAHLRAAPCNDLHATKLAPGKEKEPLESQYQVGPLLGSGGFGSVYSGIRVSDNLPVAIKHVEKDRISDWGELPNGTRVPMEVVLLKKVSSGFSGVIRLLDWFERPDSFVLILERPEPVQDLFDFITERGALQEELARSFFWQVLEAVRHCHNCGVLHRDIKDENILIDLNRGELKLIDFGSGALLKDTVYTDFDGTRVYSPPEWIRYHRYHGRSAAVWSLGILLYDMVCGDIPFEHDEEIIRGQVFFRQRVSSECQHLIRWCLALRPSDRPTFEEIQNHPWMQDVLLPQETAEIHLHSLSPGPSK
Procedure: as §1, with “of PIM1” for “of PIM2”, “0.5 μl per” for “0.5 piper”, “of 40” for “of 8”, “are 2.5” for “are 5”, “nM PIM1, 20” for “nM PIM2, 4”, “ATP, 40” for “ATP, 10”

Chain of Pim2 kinase (Q9P1W9 whole entry): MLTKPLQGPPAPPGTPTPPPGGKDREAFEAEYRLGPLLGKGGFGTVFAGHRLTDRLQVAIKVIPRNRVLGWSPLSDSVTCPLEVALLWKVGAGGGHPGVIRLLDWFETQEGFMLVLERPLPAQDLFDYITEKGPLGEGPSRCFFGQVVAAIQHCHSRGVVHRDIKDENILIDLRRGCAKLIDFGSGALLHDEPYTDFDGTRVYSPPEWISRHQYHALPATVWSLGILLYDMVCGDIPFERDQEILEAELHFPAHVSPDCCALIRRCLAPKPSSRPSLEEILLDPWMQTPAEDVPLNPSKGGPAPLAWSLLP

Row | IC50 (Pim2 kinase) [nM] | IC50 (Pim3 kinase) [nM] | IC50 (Pim1 kinase) [nM] | SMILES
1 | 47 | 18 |  | C[C@H]1C[C@@H](c2ccncc2NC(=O)c2csc(-c3c(F)cccc3F)n2)C[C@@H](N)[C@H]1F (racemic) [Example 58, N-(4-((+/−)-3-amino-4-fluoro-5-methylcyclohexyl)pyridin-3-yl)-2-(2,6-difluorophenyl)thiazole-4-carboxamide]
2 | 4 | 2 | 1 | COc1ccc(F)c(-c2nc(C(=O)Nc3cnccc3[C@@H]3C[C@H](C)C[C@H](N)C3)cs2)c1F (stereo in doubt) [Example 52, 2-(2,6-Difluoro-3-methoxy-phenyl)-thiazole-4-carboxylic acid [4-(3-amino-5-methyl-cyclohexyl)-pyridin-3-yl]-amide]
3 | 9 | 3 | 1 | CCOc1ccc(F)c(-c2nc(C(=O)Nc3cnccc3[C@@H]3C[C@H](C)C[C@H](N)C3)cs2)c1F (stereo in doubt) [Example 54, 2-(3-Ethoxy-2,6-difluoro-phenyl)-thiazole-4-carboxylic acid [4-(3-amino-5-methyl-cyclohexyl)-pyridin-3-yl]-amide]
4 | 15 | 5 | 3 | C[C@@H]1C[C@H](N)C[C@H](c2ccncc2NC(=O)c2csc(-c3c(F)ccc(F)c3F)n2)C1 (stereo in doubt) [Example 55, 2-(2,3,6-Trifluoro-phenyl)-thiazole-4-carboxylic acid [4-(3-amino-5-methyl-cyclohexyl)-pyridin-3-yl]-amide]
5 | 12 | 3 | 1 | C[C@@H]1C[C@H](N)C[C@H](c2ccncc2NC(=O)c2csc(-c3c(F)ccc(Cl)c3F)n2)C1 (stereo in doubt) [Example 56, 2-(3-Chloro-2,6-difluoro-phenyl)-thiazole-4-carboxylic acid [4-(3-amino-5-methyl-cyclohexyl)-pyridin-3-yl]-amide]
6 | 4 | 2 | 1 | C[C@@H]1C[C@H](N)C[C@H](c2ccncc2NC(=O)c2csc(-c3c(F)cc(O)cc3F)n2)C1 (stereo in doubt) [Example 57, 2-(2,6-Difluoro-4-hydroxy-phenyl)-thiazole-4-carboxylic acid [4-(3-amino-5-methyl-cyclohexyl)-pyridin-3-yl]-amide]
7 | 23 | 5 | 2 | N[C@@H]1CN(c2ccncc2NC(=O)c2csc(-c3c(F)cccc3F)n2)CC[C@H]1F [Example 3, N-(4-((3R,4R)-3-amino-4-fluoropiperidin-1-yl)pyridin-3-yl)-2-(2,6-difluorophenyl)thiazole-4-carboxamide]
8 | 77 | 13 | 15 | N[C@H]1C[C@@H](O)CN(c2ccncc2NC(=O)c2csc(-c3c(F)cccc3F)n2)C1 [Example 5, N-(4-((3S,5R)-3-amino-5-hydroxypiperidin-1-yl)pyridin-3-yl)-2-(2,6-difluorophenyl)thiazole-4-carboxamide]
9 | 243 | 18 | 5 | COC1CCN(c2ccncc2NC(=O)c2csc(-c3c(F)cccc3F)n2)CC1N (centres unmarked) [Example 7, N-(4-(3-amino-4-methoxypiperidin-1-yl)pyridin-3-yl)-2-(2,6-difluorophenyl)thiazole-4-carboxamide]
10 | 1500 | 91 | 69 | N[C@H]1C[C@H](O)CN(c2ccncc2NC(=O)c2csc(-c3c(F)cccc3F)n2)C1 [Example 9, N-(4-((3S,5S)-3-amino-5-hyydroxypiperidin-1-yl)pyridin-3-yl)-2-(2,6-difluorophenyl)thiazole-4-carboxamide]
11 | 479 | 322 | 2220 | N[C@H]1C[C@H](OC(=O)c2ccccc2)CN(c2ccncc2NC(=O)c2csc(-c3c(F)cccc3F)n2)C1 [Example 10, (3S,5S)-5-amino-1-(3-(2-(2,6-difluorophenyl)thiazole-4-carboxamido)pyridin-4-yl)piperidin-3-yl benzoate]
12 | 208 | 45 | 57 | N[C@H]1CCCN(c2ccncc2NC(=O)c2csc(C3CCCCC3)n2)C1 [Example 12, (S)-N-(4-(3-aminopiperidin-1-yl)pyridin-3-yl)-2-cyclohexylthiazole-4-carboxamide]
13 | 58 | 24 | 14 | NC1CC(CO)CN(c2ccncc2NC(=O)c2csc(-c3c(F)cccc3F)n2)C1 (centres unmarked) [Example 13, N-(4-(3-amino-5-(hydroxymethyl)piperidin-1-yl)pyridin-3-yl)-2-(2,6-difluorophenyl)thiazole-4-carboxamide]
14 | 70 | 8 | 4 | N[C@H]1C[C@H](F)CN(c2ccncc2NC(=O)c2csc(-c3c(F)cccc3F)n2)C1 [Example 17, N-(4-((3S,5S)-3-amino-5-fluoropiperidin-1-yl)pyridin-3-yl)-2-(2,6-difluorophenyl)thiazole-4-carboxamide]
15 | 54 | 12 | 5 | NC1CN(c2ccncc2NC(=O)c2csc(-c3c(F)cccc3F)n2)CCC1Cl (centres unmarked) [Example 18, N-(4-(3-amino-4-chloropiperidin-1-yl)pyridin-3-yl)-2-(2,6-difluorophenyl)thiazole-4-carboxamide]
16 | 18 | 16 | 12 | CC1CC(N)CN(c2ccncc2NC(=O)c2csc(C3CCCCC3)n2)C1 (centres unmarked) [Example 20, N-(4-(3-amino-5-methylpiperidin-1-yl)pyridin-3-yl)-2-cyclohexylthiazole-4-carboxamide]
17 | 21 | 20 | 11 | NC1CC(C(F)(F)F)CN(c2ccncc2NC(=O)c2csc(C3CCCCC3)n2)C1 (centres unmarked) [Example 21, N-(4-(3-amino-5-(trifluoromethyl)piperidin-1-yl)pyridin-3-yl)-2-cyclohexylthiazole-4-carboxamide]
18 | 378 | 60 | 129 | CO[C@H]1C[C@H](N)CN(c2ccncc2NC(=O)c2csc(-c3c(F)cccc3F)n2)C1 [Example 22, N-(4-((3S,5S)-3-amino-5-methoxypiperidin-1-yl)pyridin-3-yl)-2-(2,6-difluorophenyl)thiazole-4-carboxamide]
19 | 38 | 4 | 2 | N[C@@H]1CN(c2ccncc2NC(=O)c2csc(-c3c(F)cccc3F)n2)CC(F)(F)C1 [Example 24, (S)-N-(4-(5-amino-3,3-difluoropiperidin-1-yl)pyridin-3-yl)-2-(2,6-difluoropheenyl)thiazole-4-carboxamide]
20 | 3 | 3 | 1 | CC[C@@H]1C[C@H](N)CN(c2ccncc2NC(=O)c2csc(-c3c(F)cccc3F)n2)C1 [Example 25, N-(4-((3S,5R)-3-amino-5-ethylpiperidin-1-yl)pyridin-3-yl)-2-(2,6-difluorophenyl)thiazole-4-carboxamide]
21 | 72 | 24 | 6 | N[C@@H]1C[C@@H](C(F)(F)F)CN(c2ccncc2NC(=O)c2csc(-c3c(F)cccc3F)n2)C1 [Example 26, N-(4-((3R,5R)-3-amino-5-(trifluoromethyl)piperidin-1-yl)pyridin-3-yl)-2-(2,6-difluorophenyl)thiazole-4-carboxamide]
22 | 55 | 3 | 1 | Nc1sc(-c2c(F)cccc2F)nc1C(=O)Nc1cnccc1N1CCC(F)CC1 [Example 30, 5-amino-2-(2,6-difluorophenyl)-N-(4-(4-fluoropiperidin-1-yl)pyridin-3-yl)thiazole-4-carboxamide]
23 | 90 | 8 | 2 | C[C@@H]1C[C@H](O)C[C@H](c2ccncc2NC(=O)c2csc(-c3c(F)cccc3F)n2)C1 [Example 31, 2-(2,6-difluorophenyl)-N-(4-((1R,3S,5S)-3-hydroxy-5-methylcyclohexyl)pyridin-3-yl)thiazole-4-carboxamide]
24 | 5 | 4 | 1 | C[C@@H]1C[C@H](O)C[C@H](c2ccncc2NC(=O)c2nc(-c3c(F)cccc3F)sc2N)C1 [Example 32, 5-amino-2-(2,6-difluorophenyl)-N-(4-((1R,3S,5S)-3-hydroxy-5-methylcyclohexyl)pyridin-3-yl)thiazole-4-carboxamide]
